Experimental findings from patent publication US20240376099A1, “COMPOUNDS AND COMPOSITIONS AS INHIBITORS OF ENDOSOMAL TOLL-LIKE RECEPTORS” (Novartis AG, priority 2016, published 2024) are described below.

This assay addresses T1, TLR9 (Homo sapiens, UniProt Q9NR96).
T1 construct: Fresh blood was collected from normal human donors; endogenous in cells; host or cells: human PBMCs from fresh donor blood
T1 sequence (Q9NR96 26-1032): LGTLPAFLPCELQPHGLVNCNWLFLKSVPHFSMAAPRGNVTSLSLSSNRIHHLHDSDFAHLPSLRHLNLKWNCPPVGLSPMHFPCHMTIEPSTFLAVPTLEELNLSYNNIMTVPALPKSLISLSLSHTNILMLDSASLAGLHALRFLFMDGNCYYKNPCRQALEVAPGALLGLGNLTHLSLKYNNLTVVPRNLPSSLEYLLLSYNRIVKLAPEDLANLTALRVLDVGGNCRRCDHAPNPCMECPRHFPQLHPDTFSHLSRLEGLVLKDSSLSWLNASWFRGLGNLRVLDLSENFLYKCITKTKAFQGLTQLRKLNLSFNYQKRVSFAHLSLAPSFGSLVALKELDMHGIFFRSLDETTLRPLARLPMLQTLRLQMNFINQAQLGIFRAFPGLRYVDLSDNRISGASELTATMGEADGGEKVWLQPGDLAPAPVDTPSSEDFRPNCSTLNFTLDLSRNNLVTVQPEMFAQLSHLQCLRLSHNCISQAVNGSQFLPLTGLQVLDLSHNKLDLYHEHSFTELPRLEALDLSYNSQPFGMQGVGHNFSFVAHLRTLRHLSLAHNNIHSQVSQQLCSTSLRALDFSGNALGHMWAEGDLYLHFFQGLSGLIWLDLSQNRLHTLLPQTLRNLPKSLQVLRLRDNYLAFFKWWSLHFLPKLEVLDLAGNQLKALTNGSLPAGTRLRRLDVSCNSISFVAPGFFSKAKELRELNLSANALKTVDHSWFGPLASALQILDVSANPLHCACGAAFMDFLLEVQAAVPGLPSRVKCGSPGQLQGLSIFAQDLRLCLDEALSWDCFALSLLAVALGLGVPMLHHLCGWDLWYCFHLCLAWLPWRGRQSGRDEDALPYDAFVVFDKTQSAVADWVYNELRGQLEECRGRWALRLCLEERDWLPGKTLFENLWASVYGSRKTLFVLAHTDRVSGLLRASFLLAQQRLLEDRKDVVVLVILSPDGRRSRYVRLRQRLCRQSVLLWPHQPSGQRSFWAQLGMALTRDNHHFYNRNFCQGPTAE
The assay is described as follows: huPBMC TLR9 Antagonist IFNα Assay. In kind it is cell-based. The conditions noted are these: human PBMCs stimulated with ODN2216 0.3 μM, 14-16 hrs; IFNα2b AlphaLISA read-out. As to the method:
Compounds were generally serially diluted (1/3) in DMSO and plated on sterile 384 well tissue culture plates and stored until ready for use. Each ten-point dilution was typically plated in triplicate in parallel rows.
Fresh blood was collected from normal human donors underwritten informed consent in heparinized syringes on the morning of the assay. The blood was diluted in RPMI-1640 medium and the white blood cells were separated from red blood cells by centrifugation (800 g 15′ 0 acceleration, 0 brake) on a Ficoll cushion. Peripheral blood mononuclear cells (PBMCs) were separated from platelets by a series of low-speed centrifugations (1000RPM 10′) in PBS+5% HI—FBS and 1 mM EDTA. Purified PBMCs were re-suspended in assay medium (RPMI-1640 w Glutamax (Invitrogen) supplemented with 5% HI—FBS, 10 mM HEPES, 50 uM β-mercaptoethanol, and 100 mG/L penicillin/streptomycin cocktail). Viable PBMCs were counted on a hemacytometer and kept on ice until ready for plating.
A 4× concentration (4 ug/ml or 40 ug/ml for TLR8 or TLR7 assays, respectively) of the TLR7/8 agonist ssRNA40 (IDT) was complexed with 10% DOTAP (Roche) in assay medium for 30 min prior to addition to the PBMC suspension (5 million cells/ml). After addition, the final concentration of ssRNA40 in the TLR7/8 stimulated PBMC suspension was 1 μg/ml for TLR8 assay, and 10 μg/mL for the TLR7 assay. The final DOTAP concentration was 2.5%. Diluted PBMCs (5 million cells/ml) were treated with 4×TLR9 agonist ODN2216 (Invivogen). Final concentration of ODN2216 in TLR9 stimulated PBMC suspension was 0.3 μM.
Agonist stimulated PBMCs were plated on the compound treated 384 well plates at 150,000 cells/well. Un-stimulated PBMCs were plated as controls on each plate. Plating volume was 40 μL per well. DMSO concentration in each well was 0.25%.
A separate plate, without compounds, with titrations of ssRNA40 and ODN2216 was included in every assay to measure agonist response of each donor's PBMC prep. Assay plates were placed in a tissue culture incubator (37° C., 5% CO2) for 14-16 hrs. After this incubation, the plates were centrifuged and stored at −20° C. until they were assayed.
IL-6 TR-FRET Assay for TLR8 activity: • 1) Cisbio Human IL-6 kit, 20,000 tests (62TNFPEC), and GNF High-Base TC 384 well plates (cat #789163G) were used; • 2) the Anti-TIL-6 Cryptate conjugate and the Anti-IL-6 XL665 conjugate were diluted 1:20 in Reconstitution Buffer; • 3) a 1:1 mixture of 3 μl/well Anti-IL-6 Cryptate conjugate and 3 μl/well Anti-IL-6 XL665 conjugate was prepared; • 4) 6 μl/well HTRF dilution mastermix was added to 6 μl of transferred supernatant samples in proxiplates; • 5) The plates were incubated for 3 hrs at rt in the dark; and • 6) the levels of IL-6 production was measured using an Envision plate reader (665 nm (emmission)/590 nm (excitation)) with HTRF settings and ratiometric read-out: (XL665 emission/Eu Cryptate emission)×10,000. IFNα2b AlphaLISA Assay for TLR7 or TLR9 activity After thawing the assay plates, 6 μL of supernatant samples were transferred to a low-volume AlphaPlate 384SW (Perkin-Elmer). The concentration of IFNα in supernatants was measured using the IFNα2b AlphaLISA Assay (Perkin-Elmer: AL297F). 3 μL of IFNα acceptor beads/biotinylated antibody solution was added first, using laboratory automation. After an hour incubation, […] of streptavidin […] bead solution was added. The plates containing this mixture were incubated in the dark for an hour and read on an appropriate plate reader at reading parameters set by the manufacturer. (Envision, EnSpire: Perkin-Elmer).
Background: In Alpha technology, singlet oxygen from a donor bead excites a nearby acceptor bead.

A value given as a limit tells only on which side of the number the result lay.

Take `Cc1cc(N2CCc3c(c(C)nn3CC34CCC(N)(CC3)CC4)C2)c2ccncc2n1` [Compound No. 3, 4-((3-methyl-5-(2-methyl-1,7-naphthyridin-4-yl)-4,5,6,7-tetrahydro-1H-pyrazolo[4,3-c]pyridin-1-yl)methyl)bicyclo[2.2.2]octan-1-amine]: the IC50 – broadly, the midpoint of a concentration-inhibition curve – was found to be 1930 nM.

Turning to `Cc1cc(N2CCc3c(c(C)nn3CC34CCC(NC5COC5)(CC3)CC4)C2)c2cnn(C)c2n1` [Compound No. 6, N-(4-((5-(1,6-dimethyl-1H-pyrazolo[3,4-b]pyridin-4-yl)-3-methyl-4,5,6,7-tetrahydro-1H-pyrazolo[4,3-c]pyridin-1-yl)methyl)bicyclo[2.2.2]octan-1-yl)oxetan-3-amine], the IC50 was found to be 1390 nM.

With `Cc1cc(N2CCc3c(c(C)nn3CC34CCC(NC(=O)[C@@H]5COCCN5)(CC3)CC4)C2)c2cnn(C)c2n1` [Compound No. 8, (S)—N-(4-((5-(1,6-dimethyl-1H-pyrazolo[3,4-b]pyridin-4-yl)-3-methyl-4,5,6,7-tetrahydro-1H-pyrazolo[4,3-c]pyridin-1-yl)methyl)bicyclo[2.2.2]octan-1-yl)morpholine-3-carboxamide], the IC50 turned out to be 4280 nM.

With `Cc1cc(N2CCc3c(c(C)nn3CC34CCC(NC(=O)[C@H]5COCCN5)(CC3)CC4)C2)c2cnn(C)c2n1` [Compound No. 9, (R)—N-(4-((5-(1,6-dimethyl-1H-pyrazolo[3,4-b]pyridin-4-yl)-3-methyl-4,5,6,7-tetrahydro-1H-pyrazolo[4,3-c]pyridin-1-yl)methyl)bicyclo[2.2.2]octan-1-yl)morpholine-3-carboxamide], the IC50 stood at 5100 nM.

On to `Cc1nc(N2CCc3c(c(C)nn3CC34CCC(N5CC6(COC6)C5)(CC3)CC4)C2)c2c(n1)c(C)nn2C` [Compound No. 10, 6-(4-((3-methyl-5-(1,3,5-trimethyl-1H-pyrazolo[4,3-d]pyrimidin-7-yl)-4,5,6,7-tetrahydro-1H-pyrazolo[4,3-c]pyridin-1-yl)methyl)bicyclo[2.2.2]octan-1-yl)-2-oxa-6-azaspiro[3.3]heptane], for which the IC50 is greater than 10000 nM.

On to `Cc1nc(N2CCc3c(c(C)nn3CC34CCC(N)(CC3)CC4)C2)c2c(n1)c(C)nn2C` [Compound No. 26, 4-((3-methyl-5-(1,3,5-trimethyl-1H-pyrazolo[4,3-d]pyrimidin-7-yl)-4,5,6,7-tetrahydro-1H-pyrazolo[4,3-c]pyridin-1-yl)methyl)bicyclo[2.2.2]octan-1-amine], for which the IC50 was greater than 1000 nM.

Regarding `Cc1cc(N2CCc3c(c(C)nn3CC34CCC(N(C)C)(CC3)CC4)C2)c2cnn(C)c2n1` [Compound No. 43, 4-((5-(1,6-dimethyl-1H-pyrazolo[3,4-b]pyridin-4-yl)-3-methyl-4,5,6,7-tetrahydro-1H-pyrazolo[4,3-c]pyridin-1-yl)methyl)-N,N-dimethylbicyclo[2.2.2]octan-1-amine], the IC50 came out at 511 nM.

As to `Cc1cc(N2CCc3c(c(C)nn3CC34CCC(N5CCN(C)C(=O)C5)(CC3)CC4)C2)c2cnn(C)c2n1` [Compound No. 104, 4-(4-((5-(1,6-dimethyl-1H-pyrazolo[3,4-b]pyridin-4-yl)-3-methyl-4,5,6,7-tetrahydro-1H-pyrazolo[4,3-c]pyridin-1-yl)methyl)bicyclo[2.2.2]octan-1-yl)-1-methylpiperazin-2-one], the IC50 was greater than 10000 nM.

Take `Cc1cc(N2CCc3c(c(C)nn3CC34CCC(N5CCN(C)CC5=O)(CC3)CC4)C2)c2cnn(C)c2n1` [Compound No. 108, 1-(4-((5-(1,6-dimethyl-1H-pyrazolo[3,4-b]pyridin-4-yl)-3-methyl-4,5,6,7-tetrahydro-1H-pyrazolo[4,3-c]pyridin-1-yl)methyl)bicyclo[2.2.2]octan-1-yl)-4-methylpiperazin-2-one]: the IC50 is 8640 nM.

For the molecule `Cc1cc(N2CCc3c(c(C)nn3CC34CCC(n5ccnc5)(CC3)CC4)C2)c2cnn(C)c2n1` [Compound No. 119, 1-((4-(1H-imidazol-1-yl)bicyclo[2.2.2]octan-1-yl)methyl)-5-(1,6-dimethyl-1H-pyrazolo[3,4-b]pyridin-4-yl)-3-methyl-4,5,6,7-tetrahydro-1H-pyrazolo[4,3-c]pyridine], the IC50 was determined as 608 nM.

As to `Cc1cc(N2CCc3c(c(C)nn3CC34CCC(NC(=O)CN5CC(F)C5)(CC3)CC4)C2)c2cnn(C)c2n1` [Compound No. 133, N-(4-((5-(1,6-dimethyl-1H-pyrazolo[3,4-b]pyridin-4-yl)-3-methyl-4,5,6,7-tetrahydro-1H-pyrazolo[4,3-c]pyridin-1-yl)methyl)bicyclo[2.2.2]octan-1-yl)-2-(3-fluoroazetidin-1-yl)acetamide], the IC50 was 1140 nM.

As for `Cc1cc(N2CCc3c(c(C)nn3CC34CCC(NC(=O)CO)(CC3)CC4)C2)c2cnn(C)c2n1` [Compound No. 135, N-(4-((5-(1,6-dimethyl-1H-pyrazolo[3,4-b]pyridin-4-yl)-3-methyl-4,5,6,7-tetrahydro-1H-pyrazolo[4,3-c]pyridin-1-yl)methyl)bicyclo[2.2.2]octan-1-yl)-2-hydroxyacetamide], the half-inhibitory concentration (IC50) was greater than 10000 nM.

In the case of `Cc1cc(N2CCc3c(c(C)nn3CC34CCC(NC(=O)CN5CC(O)C5)(CC3)CC4)C2)c2cnn(C)c2n1` [Compound No. 136, N-(4-((5-(1,6-dimethyl-1H-pyrazolo[3,4-b]pyridin-4-yl)-3-methyl-4,5,6,7-tetrahydro-1H-pyrazolo[4,3-c]pyridin-1-yl)methyl)bicyclo[2.2.2]octan-1-yl)-2-(3-hydroxyazetidin-1-yl)acetamide], the IC50 was 1170 nM.

As to `[2H]C([2H])([2H])n1ncc2c(N3CCc4c(c(C)nn4CC45CCC(N)(CC4)CC5)C3)cc(C)nc21` [Compound No. 140, 4-((3-methyl-5-(6-methyl-1-(methyl-d3)-1H-pyrazolo[3,4-b]pyridin-4-yl)-4,5,6,7-tetrahydro-1H-pyrazolo[4,3-c]pyridin-1-yl)methyl)bicyclo[2.2.2]octan-1-amine], the IC50 came to 1800 nM.
